We go through one compound from ChEMBL document CHEMBL5316318, “Structural Modification and Pharmacological Evaluation of Substituted Quinoline-5,8-diones as Potent NSD2 Inhibitors” (J Med Chem, 2023).

The target of series [1] is T1, Histone-lysine N-methyltransferase NSD2 (Homo sapiens, UniProt O96028).
T1 sequence (O96028 whole entry): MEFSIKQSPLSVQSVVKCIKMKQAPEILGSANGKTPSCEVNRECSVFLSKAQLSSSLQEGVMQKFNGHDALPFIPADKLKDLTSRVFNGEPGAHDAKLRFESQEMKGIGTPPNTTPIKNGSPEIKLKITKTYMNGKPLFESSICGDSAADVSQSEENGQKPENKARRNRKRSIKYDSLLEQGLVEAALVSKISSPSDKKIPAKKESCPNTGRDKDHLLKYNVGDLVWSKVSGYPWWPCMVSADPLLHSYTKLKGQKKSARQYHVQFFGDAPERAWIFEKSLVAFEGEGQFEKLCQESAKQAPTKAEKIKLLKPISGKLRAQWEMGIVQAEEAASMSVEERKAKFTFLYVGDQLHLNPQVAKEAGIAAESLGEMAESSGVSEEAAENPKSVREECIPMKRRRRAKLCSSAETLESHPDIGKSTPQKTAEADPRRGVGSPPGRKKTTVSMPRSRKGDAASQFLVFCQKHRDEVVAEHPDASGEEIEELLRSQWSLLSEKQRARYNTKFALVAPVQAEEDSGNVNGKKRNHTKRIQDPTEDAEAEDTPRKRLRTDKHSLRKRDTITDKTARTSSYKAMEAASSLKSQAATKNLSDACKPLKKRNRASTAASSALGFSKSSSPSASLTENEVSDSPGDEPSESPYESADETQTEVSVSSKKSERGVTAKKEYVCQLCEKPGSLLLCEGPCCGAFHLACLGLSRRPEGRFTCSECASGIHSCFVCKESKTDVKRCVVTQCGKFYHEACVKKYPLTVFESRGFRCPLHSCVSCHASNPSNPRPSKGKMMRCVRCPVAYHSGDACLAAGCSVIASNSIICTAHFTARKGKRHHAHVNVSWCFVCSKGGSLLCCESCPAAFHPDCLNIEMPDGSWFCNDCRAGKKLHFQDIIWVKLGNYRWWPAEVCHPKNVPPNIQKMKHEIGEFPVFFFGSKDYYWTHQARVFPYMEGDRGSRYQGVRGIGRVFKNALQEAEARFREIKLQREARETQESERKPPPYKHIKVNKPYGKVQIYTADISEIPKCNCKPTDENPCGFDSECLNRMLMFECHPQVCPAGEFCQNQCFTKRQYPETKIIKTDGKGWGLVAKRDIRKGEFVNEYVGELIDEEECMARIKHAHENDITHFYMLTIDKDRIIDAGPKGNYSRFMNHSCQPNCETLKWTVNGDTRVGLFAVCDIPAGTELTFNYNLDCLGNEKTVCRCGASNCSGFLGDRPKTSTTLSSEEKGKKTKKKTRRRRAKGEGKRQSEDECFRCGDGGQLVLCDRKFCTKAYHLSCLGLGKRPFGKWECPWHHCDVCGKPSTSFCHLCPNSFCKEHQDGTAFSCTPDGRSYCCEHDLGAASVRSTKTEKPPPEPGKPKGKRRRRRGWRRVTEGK
The experiment in a line: Inhibition of recombinant human NSD2 (941 to 1240 residues) using SAM as substrate incubated for 3 hrs by AlphaLISA assay. In general terms: Alpha assays give light when donor and acceptor beads are brought close together.

For series [2], the target named is Histone-lysine N-methyltransferase 2A (Homo sapiens, UniProt Q03164). The experiment in a line: Inhibition of MLL1 (unknown origin) using SAM as substrate preincubated for 10 mins followed by substrate addition and measured after 4 hrs by HTRF analysis. In general terms: TR-FRET usually uses a lanthanide donor and a delayed reading to cut background.
For series [3], the target named is Neural cell adhesion molecule 1 (Homo sapiens) (UniProt P13591). The experiment in a line: Inhibition of NCAM1 transcriptional activation in human KMS-11 cells assessed as reduction in NCAM1 mRNA expression at 0.5 uM by qRT-PCR analysis. Format: cell-based. Background: In qPCR the cycle at which signal appears reflects the starting amount.
Series [4] relates to KMS-11. The experiment in a line: Induction of apoptosis in human KMS-11 cells assessed as late apoptotic cells at 0.8 uM incubated for 72 hrs by Annexin V-FITC/PI staining based flow cytometry analysis (reference value: 6.47%). Format: functional.
Series [5] has as its system RS4-11. The experiment in a line: Antiproliferative activity against human RS4-11 cells harboring NSD2 E1099K mutant assessed as inhibition of cell growth incubated for 6 days by CCK-8 assay. Format: functional, cell-based. Particulars: RS4-11, 144 h.
Series [6] deals with Serine/threonine-protein kinase mTOR (Homo sapiens) (UniProt P42345). Put plainly: Modulation of mTOR signaling pathway in human KMS-11 cells at 1 uM incubated for 48 hrs by RNA-Seq analysis. The settings on record: filed as modulator. Format: cell-based.
Series [7] concerns KMS-11. The experiment in a line: Modulation of FoxO signaling pathway in human KMS-11 cells at 1 uM incubated for 48 hrs by RNA-Seq analysis. Particulars: filed as modulator. The series is classed as cell-based.
The subject of series [8] is MOLM-13. Put plainly: Antiproliferative activity against human MOLM-13 cells harboring wild type NSD2 assessed as inhibition of cell growth incubated for 6 days by CCK-8 assay. The series is classed as functional, cell-based. Particulars: MOLM-13, 144 h.
Series [9] addresses Protein arginine N-methyltransferase 1 (Homo sapiens, UniProt Q99873). The experiment in a line: Inhibition of PRMT1 (unknown origin) by AlphaLISA assay.
The target in series [10] is Hepatocyte growth factor receptor (Homo sapiens) (UniProt P08581). Put plainly: Inhibition of MET transcriptional activation in human KMS-11 cells assessed as reduction in H3K36me2 level in promoter region by ChIP-qPCR analysis. Format: cell-based.
The test system of series [11] is KMS-11. Put plainly: Induction of apoptosis in human KMS-11 cells assessed as live cells at 0.2 uM incubated for 72 hrs by Annexin V-FITC/PI staining based flow cytometry analysis (reference value: 83.1%). The series is classed as functional.
Series [12] concerns KMS-11. Put plainly: Antitumor activity against human KMS-11 cells xenografted in SCID mouse assessed as tumor growth inhibition at 75 mg/kg, po administered daily for 21 days and measured every 3 days relative to control. Format: functional. Particulars: KMS-11, 504 h, time 21 day, read-out: TGI.
Series [13] deals with KMS-11. Put plainly: Induction of apoptosis in human KMS-11 cells assessed as dead cells at 0.8 uM incubated for 72 hrs by Annexin V-FITC/PI staining based flow cytometry analysis (reference value: 6.48%). Format: functional.
The nature of series [14]: Tmax in ICR mouse at 3 mg/kg, po measured for 24 hrs by LC-MS/MS analysis. Format: ADME, organism-based. The settings on record: in vivo.
The subject of series [15] is KMS-11. The experiment in a line: Induction of apoptosis in human KMS-11 cells assessed as live cells at 0.5 uM incubated for 72 hrs by Annexin V-FITC/PI staining based flow cytometry analysis (reference value: 83.1%). The series is classed as functional.
Series [16] has as its system U-937. The experiment in a line: Antiproliferative activity against human U-937 cells harboring wild type NSD2 assessed as inhibition of cell growth incubated for 6 days by CCK-8 assay. Format: functional, cell-based. Particulars: U-937, 144 h.
Series [17] addresses Protein arginine N-methyltransferase 5 (Homo sapiens, UniProt O14744). Put plainly: Inhibition of PRMT5 (unknown origin) by AlphaLISA assay.
Series [18] concerns U2932. The experiment in a line: Antiproliferative activity against human U2932 cells assessed as inhibition of cell growth incubated for 6 days by CCK-8 assay. The series is classed as functional, cell-based. The settings on record: U2932, 144 h.
Series [19] deals with KMS-11. Put plainly: Induction of apoptosis in human KMS-11 cells assessed as dead cells at 0.5 uM incubated for 72 hrs by Annexin V-FITC/PI staining based flow cytometry analysis (reference value: 6.48%). The series is classed as functional.
In series [20] the test system is HL-60. The experiment in a line: Antiproliferative activity against human HL-60 cells harboring wild type NSD2 assessed as inhibition of cell growth incubated for 6 days by CCK-8 assay. The series is classed as functional, cell-based. The settings on record: HL-60, 144 h.

A word on the pIC50: it is the IC50 on a negative log10 scale, so that one unit is a factor of ten. By Tmax is commonly meant the time from dosing to the highest level.

pIC50: −log10 of the molar value. Activity calls are given as the source filed them. No cut-off for these calls is given here.

Neural cell adhesion molecule 1 (Homo sapiens), sequence (P13591 whole entry): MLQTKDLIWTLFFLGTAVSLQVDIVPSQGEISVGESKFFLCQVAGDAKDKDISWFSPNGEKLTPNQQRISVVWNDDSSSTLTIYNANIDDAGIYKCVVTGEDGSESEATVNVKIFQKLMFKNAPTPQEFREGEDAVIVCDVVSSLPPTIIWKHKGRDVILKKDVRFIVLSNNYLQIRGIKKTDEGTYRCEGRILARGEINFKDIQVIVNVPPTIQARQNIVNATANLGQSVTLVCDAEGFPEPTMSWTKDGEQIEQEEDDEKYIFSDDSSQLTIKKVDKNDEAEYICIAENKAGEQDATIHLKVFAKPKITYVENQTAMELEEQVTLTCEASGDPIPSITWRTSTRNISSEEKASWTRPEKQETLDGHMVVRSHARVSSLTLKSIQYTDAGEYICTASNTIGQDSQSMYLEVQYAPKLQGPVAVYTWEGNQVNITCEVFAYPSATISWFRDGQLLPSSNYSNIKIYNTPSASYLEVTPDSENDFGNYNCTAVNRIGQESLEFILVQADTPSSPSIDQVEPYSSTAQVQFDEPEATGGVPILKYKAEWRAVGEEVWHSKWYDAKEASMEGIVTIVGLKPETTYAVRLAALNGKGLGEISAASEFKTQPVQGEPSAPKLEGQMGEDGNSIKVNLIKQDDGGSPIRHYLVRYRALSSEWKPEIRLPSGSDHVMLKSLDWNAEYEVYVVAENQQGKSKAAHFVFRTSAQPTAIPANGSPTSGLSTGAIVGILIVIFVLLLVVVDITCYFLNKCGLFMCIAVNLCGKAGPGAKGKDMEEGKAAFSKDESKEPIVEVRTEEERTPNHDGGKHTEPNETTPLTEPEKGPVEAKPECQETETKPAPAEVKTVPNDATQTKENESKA
Histone-lysine N-methyltransferase 2A, sequence (Q03164 1-2718 limits assumed): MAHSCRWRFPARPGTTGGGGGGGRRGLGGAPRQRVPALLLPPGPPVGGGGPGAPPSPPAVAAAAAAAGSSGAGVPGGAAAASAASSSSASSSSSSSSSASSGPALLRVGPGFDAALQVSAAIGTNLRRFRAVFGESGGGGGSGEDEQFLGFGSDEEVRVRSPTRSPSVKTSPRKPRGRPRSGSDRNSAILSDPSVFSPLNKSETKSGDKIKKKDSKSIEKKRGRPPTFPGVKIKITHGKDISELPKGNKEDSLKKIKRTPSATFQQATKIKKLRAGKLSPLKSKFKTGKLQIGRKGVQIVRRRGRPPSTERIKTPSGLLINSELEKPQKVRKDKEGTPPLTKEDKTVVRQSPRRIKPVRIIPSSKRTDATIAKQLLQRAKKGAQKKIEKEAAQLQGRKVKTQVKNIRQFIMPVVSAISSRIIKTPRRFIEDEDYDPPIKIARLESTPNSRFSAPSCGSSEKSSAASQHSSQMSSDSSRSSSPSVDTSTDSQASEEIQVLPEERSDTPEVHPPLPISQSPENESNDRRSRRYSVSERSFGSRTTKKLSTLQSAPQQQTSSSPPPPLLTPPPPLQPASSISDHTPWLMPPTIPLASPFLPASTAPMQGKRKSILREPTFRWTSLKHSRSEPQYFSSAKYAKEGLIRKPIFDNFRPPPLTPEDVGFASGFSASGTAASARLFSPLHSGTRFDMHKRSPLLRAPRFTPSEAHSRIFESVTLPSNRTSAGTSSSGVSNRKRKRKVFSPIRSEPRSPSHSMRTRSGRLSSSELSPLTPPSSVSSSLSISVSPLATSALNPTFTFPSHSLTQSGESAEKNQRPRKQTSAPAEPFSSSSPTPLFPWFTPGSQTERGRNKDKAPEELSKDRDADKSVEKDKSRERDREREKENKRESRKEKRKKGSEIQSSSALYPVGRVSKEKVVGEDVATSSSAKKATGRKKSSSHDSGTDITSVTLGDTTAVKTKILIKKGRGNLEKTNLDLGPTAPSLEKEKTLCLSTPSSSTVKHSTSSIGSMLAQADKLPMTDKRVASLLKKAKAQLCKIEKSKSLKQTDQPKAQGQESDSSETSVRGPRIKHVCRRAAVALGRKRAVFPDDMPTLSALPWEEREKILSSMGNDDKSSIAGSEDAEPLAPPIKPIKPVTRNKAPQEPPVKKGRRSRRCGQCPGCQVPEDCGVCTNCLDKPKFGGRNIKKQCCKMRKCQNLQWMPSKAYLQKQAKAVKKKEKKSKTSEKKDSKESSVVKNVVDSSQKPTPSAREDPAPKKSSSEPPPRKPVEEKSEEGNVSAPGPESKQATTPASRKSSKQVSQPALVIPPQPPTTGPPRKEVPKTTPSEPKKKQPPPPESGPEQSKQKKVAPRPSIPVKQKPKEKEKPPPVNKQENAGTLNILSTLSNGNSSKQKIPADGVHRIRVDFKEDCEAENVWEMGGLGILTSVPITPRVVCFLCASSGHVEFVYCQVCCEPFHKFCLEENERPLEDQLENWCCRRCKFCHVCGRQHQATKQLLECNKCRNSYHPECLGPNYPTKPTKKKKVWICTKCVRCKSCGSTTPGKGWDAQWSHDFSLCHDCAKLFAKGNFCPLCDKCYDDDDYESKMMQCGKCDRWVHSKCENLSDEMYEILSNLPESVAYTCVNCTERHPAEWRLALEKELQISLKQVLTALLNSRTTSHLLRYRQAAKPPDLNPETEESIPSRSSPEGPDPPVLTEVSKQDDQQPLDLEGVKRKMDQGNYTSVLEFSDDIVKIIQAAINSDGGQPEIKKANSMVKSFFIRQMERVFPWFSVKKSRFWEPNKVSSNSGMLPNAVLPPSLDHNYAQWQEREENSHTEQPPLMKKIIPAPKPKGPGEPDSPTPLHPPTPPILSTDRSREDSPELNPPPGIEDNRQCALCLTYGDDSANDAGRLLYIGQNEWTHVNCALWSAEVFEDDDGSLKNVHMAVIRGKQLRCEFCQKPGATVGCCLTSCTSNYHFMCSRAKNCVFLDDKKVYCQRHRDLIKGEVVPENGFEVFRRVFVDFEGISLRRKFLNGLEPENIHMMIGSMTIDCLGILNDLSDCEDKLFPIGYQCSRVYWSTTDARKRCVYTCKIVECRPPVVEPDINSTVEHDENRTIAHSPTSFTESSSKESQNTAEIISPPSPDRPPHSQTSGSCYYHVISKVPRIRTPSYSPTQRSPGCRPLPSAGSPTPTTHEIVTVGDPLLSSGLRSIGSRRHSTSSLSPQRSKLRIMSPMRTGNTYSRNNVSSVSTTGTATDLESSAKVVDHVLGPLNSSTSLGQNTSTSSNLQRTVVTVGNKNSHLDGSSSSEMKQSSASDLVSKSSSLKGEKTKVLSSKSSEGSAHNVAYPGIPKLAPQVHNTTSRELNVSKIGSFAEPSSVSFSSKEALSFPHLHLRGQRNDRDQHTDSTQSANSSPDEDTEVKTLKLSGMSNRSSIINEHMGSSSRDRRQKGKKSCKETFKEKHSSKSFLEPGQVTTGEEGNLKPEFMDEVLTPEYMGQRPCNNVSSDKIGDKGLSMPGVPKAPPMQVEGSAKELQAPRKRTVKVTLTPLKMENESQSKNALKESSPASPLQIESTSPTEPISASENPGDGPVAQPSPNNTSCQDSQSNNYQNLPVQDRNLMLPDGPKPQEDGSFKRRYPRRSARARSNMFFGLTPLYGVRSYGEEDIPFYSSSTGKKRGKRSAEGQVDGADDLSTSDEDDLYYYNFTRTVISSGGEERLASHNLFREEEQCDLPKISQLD
Histone-lysine N-methyltransferase 2A, sequence (Q03164 2719-3969 limits assumed): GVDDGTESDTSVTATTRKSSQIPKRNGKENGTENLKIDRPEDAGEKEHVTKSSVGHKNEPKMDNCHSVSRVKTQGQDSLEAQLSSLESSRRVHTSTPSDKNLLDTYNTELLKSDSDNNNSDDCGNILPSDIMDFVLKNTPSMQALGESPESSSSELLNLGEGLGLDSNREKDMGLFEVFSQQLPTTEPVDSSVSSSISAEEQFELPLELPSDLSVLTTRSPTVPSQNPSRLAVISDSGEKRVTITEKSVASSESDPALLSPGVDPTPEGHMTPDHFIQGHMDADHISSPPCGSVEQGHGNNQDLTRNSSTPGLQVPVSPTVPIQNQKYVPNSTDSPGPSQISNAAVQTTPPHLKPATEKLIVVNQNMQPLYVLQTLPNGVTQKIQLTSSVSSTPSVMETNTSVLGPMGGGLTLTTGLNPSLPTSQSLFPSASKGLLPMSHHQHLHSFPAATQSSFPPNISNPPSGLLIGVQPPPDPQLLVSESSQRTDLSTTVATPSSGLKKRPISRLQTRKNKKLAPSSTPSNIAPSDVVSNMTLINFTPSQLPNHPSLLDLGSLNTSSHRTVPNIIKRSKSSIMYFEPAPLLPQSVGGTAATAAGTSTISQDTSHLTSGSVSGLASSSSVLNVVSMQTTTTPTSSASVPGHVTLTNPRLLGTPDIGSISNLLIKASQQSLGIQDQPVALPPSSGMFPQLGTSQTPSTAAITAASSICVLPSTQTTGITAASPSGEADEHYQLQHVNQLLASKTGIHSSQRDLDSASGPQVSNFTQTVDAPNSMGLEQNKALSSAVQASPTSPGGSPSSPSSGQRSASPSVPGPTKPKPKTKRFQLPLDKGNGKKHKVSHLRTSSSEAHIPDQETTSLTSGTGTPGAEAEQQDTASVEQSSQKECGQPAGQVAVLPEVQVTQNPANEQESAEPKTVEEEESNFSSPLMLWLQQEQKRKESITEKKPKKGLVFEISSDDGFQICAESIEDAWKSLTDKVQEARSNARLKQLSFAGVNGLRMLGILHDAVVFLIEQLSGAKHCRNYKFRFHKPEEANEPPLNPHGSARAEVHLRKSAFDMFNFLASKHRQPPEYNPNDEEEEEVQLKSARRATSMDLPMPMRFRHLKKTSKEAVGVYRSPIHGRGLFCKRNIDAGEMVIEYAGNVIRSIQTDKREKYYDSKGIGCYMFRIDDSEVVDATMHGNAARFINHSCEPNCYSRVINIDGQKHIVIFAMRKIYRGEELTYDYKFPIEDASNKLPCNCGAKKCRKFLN

In the case of `CC#CC(=O)NC12CC(NC3=C(Cl)C(=O)c4ncccc4C3=O)(C1)C2`, the pIC50 in series [1] was 6.64; in series [2] it was less than 5.00; in [5] it was 6.52; in series [8], 5.50; in series [9], less than 5.00; in series [16], 5.31. Moreover, the pIC50 in series [17] was less than 5.00; in series [18], 5.04; in [20], 5.58. Moreover, the inhibition entry in series [3] and in series [10] was “Active” throughout. Moreover, the Activity in series [4] is reported as 19.7%; in series [11], 81.3%; in series [13] it was 5.98%; in [15], 63.8%; in series [19], 6.33%. Moreover, the outcome in series [6] and in [7] was Active. Moreover, the inhibition in vivo at 75 mg/kg in [12] came to 56%. The time of peak concentration (Tmax) in [14] came to 1.5 h.
